The values below come from patent US20230321265A1, “KAPPA OPIOID RECEPTOR AGONIST-THERAPEUTIC ANTIGEN BINDING PROTEIN CONJUGATE (KTAC) COMPOUNDS” (Cara Therapeutics, Inc., priority 2020, published 2023).

Experiment [1] concerns LPS-Induced Cytokine Release. As to the kind of experiment: LPS-induced cytokine release in mice (Luminex). Type of experiment: in vivo, female Balb/c mice. Particulars: 30 min before LPS 1 mg/kg IP, serum 2 hr post-LPS. The text has this:
Data were summarized as percent reduction from vehicle-treated controls (n = 8/group). (*p<0.05 vs. vehicle; unpaired t-test).

Experiment [2] relates to human rheumatoid arthritis (RA) synoviocytes. As to the kind of experiment: TNF-alpha release from human rheumatoid arthritis synoviocytes stimulated with interferon-gamma and anti-CD40 antibody. Particulars: 48 hour period.
Protocol: Concentrations of TNF-alpha are then measured in tissue culture supernatants by multiplex immunoassay.
The next experiment has as its system LPS-induced TNF release. The experiment is described as follows: LPS-induced serum TNF-alpha in mice (ELISA). Type of experiment: in vivo, female Balb/c mice. As to conditions: 3 and 10 mg/kg SC, 30 min before LPS 1 mg/kg IP, serum 2 hours post-LPS. The protocol: FIG. 5 Reduction in LPS-induced TNF release in Mice Pretreated with SC CR845 at 1, 3 and 10 mg/kg; and separately showing a comparison of the effect of prednisone as compared with vehicle alone.
Thirty minutes later, mice were injected IP with the bacterial lipopolysaccharide (LPS, 1 mg/kg) and serum samples collected 2 hours post-LPS treatment (n = 8/group). TNF-alpha levels in serum were determined by ELISA.
On the technique in general: An ELISA detects its analyte on a solid surface through an enzyme-linked reagent.

For experiment [3], the system named is Human monocyte-derived macrophages. The experiment is described as follows: Cytokine release from LPS/IFN-γ stimulated human monocyte-derived macrophages (multiplex immunoassay). The class given is cell-based. The protocol: Human monocyte-derived macrophages were stimulated with lipopolysaccharide (LPS) and interferon gamma (IFN-γ) in the presence and absence of CR845 or interleukin-10 (IL-10; 10 ng/mL). Cytokine release in the 18-hour supernatants was measured by multiplex immunoassay (N=4 donors per condition, with assays run in triplicate), with results expressed as mean cytokine release (± SEM) following stimulation with LPS and IFN-γ. […] The minimum effective concentration was 2.0 nM, which was the lowest concentration tested (see Table 1).
Statistical comparisons: *, P<0.05; **, P<0.01; ***, P<0.001 compared with LPS/IFN-γ alone; ##, P<0.001 compared with LPS/IFN-γ + CR845 at 50 nM §, P<0.05 compared with LPS/IFN-γ + CR845 at 50 nM; ¶, P<0.005 compared with LPS/IFN-γ; ¶¶, P<0.001 compared with LPS/IFN-γ

Experiment [4] relates to carrageenan-induced paw swelling. As to the kind of experiment: Carrageenan-induced paw edema in rats. Type of experiment: in vivo, male SD rats. The protocol:
FIG. 6: Intravenous CR845 Produces Dose-Dependent Inhibition of Carrageenan-Induced Paw Edema Formation in Rats: Chart showing paw volume after administration of vehicle alone, or vehicle plus 0.1, 0.3 or 1.0 mg/kg CR845.
In a rat model of inflammatory disease, intraplantar injection of carrageenan in one hind paw is commonly used to produce acute inflammation, resulting in the swelling of the inoculated paw (Stein, Millan et al. 1988). Animals were administered CR845 IV (tail vein, 1 mL/kg) 30 min prior to intraplantar carrageenan administration (100 µL 2% carrageenan into left hind paw; n=6/group). Paw volumes were assessed 3.5 hr post treatment (i.e., 3 hr post-carrageenan injection).

The mark [5] stands for this setting: LPS/IFNγ stimulated, CR845 50 nM, 18-hour supernatant, mean (SEM).
[6] abbreviates: LPS/IFNγ stimulated, nor-BNI 10 nM alone, mean (SEM).

Marks after values point to notes of the source that are not given here.

`CC(C)C[C@@H](NC(=O)[C@@H](Cc1ccccc1)NC(=O)[C@H](N)Cc1ccccc1)C(=O)N[C@H](CCCCN)C(=O)N1CCC(N)(C(=O)O)CC1` [CR845, D-Phe-D-Phe-D-Leu-D-Lys-[ω(4-aminopiperidine-4carboxylic acid)]-OH]: in experiment [1] (CR845 10 mg/kg SC), the “GM-CSF % Inhibition” value was 7%, the “IL-1α % Inhibition” value was -37%, the “IL-1β % Inhibition” value was 26* % and the “IL-2 % Inhibition” value is reported as 23* %. In addition, in experiment [1] (CR845 10 mg/kg SC), the “IL-4 % Inhibition” value is listed as 21%, the “IL-6 % Inhibition” value was -10%, the “IL-10 % Inhibition” value stood at 26% and the “IL-12 (p40/p70) % Inhibition” value was 23* %. In addition, in experiment [1] (CR845 10 mg/kg SC), the “MCP-1 % Inhibition” value is reported as -11%, the “MIP-1α % Inhibition” value is 19%, the “MIP-1β % Inhibition” value is 19* % and the “TNFα % Inhibition” value is recorded as 47* %. In addition, the “TNF-alpha release (CD-40/interferon-gamma stimulated release standardized to 100)” value (“TNF-alpha release” for short) in experiment [2] (0.1 nM) is given as 20. Moreover, the “TNF-alpha release” value in experiment [2] (0.3 nM) is recorded as -25. The “serum TNF-alpha suppression” value with LPS-induced TNF release is “dose-dependent suppression of TNF-alpha that is statistically significant”. Further, the IL-6 release in experiment [3] (LPS/IFNγ stimulated, CR845 10 nM, 18-hour supernatant, mean (SEM)) was 398.0 (108.4) pg/mL. Besides, in experiment [3] (setting [5]), the IL-6 release is 563.7 (53.9) pg/mL and the IL-8 release is reported as 1211 (56.7) pg/mL. In experiment [3] (lowest concentration tested), the “minimum effective concentration for reduction of cytokine secretion” value was 2.0 nM. For the same compound, the “secretion of TNF, IL-1β, IL-6, IL-8 and GCSF following stimulation with LPS and IFN-γ” value in experiment [3] (primary human macrophages, vs. vehicle) was “significantly reduced”. In addition, in experiment [4] (IV 30 min prior to carrageenan, paw volume at 3.5 hr post-injection), the “minimum effective IV dose for reduction of carrageenan-induced paw swelling” value is on record as 0.3 mg/kg. In addition, the carrageenan-induced paw swelling result in experiment [4] (IV, 0.1, 0.3 or 1.0 mg/kg, vs. vehicle) is recorded as “significantly reduces carrageenan-induced paw swelling”.

Consider `C[C@]12C=CC(=O)C=C1CC[C@@H]1[C@@H]2[C@@H](O)C[C@@]2(C)[C@H]1CC[C@]2(O)C(=O)CO` [Prednisolone, prednisolone], for which, in experiment [1] (Prednisolone 3 mg/kg SC), the “IL-1α % Inhibition” value is recorded as 50* %, the “IL-1β % Inhibition” value is on record as 39* %, the “IL-2 % Inhibition” value is 24* % and the “IL-4 % Inhibition” value is 41* %. Further, in experiment [1] (Prednisolone 3 mg/kg SC), the “IL-6 % Inhibition” value is -2%, the “IL-10 % Inhibition” value is recorded as 59* %, the “IL-12 (p40/p70) % Inhibition” value is recorded as 45* % and the “MCP-1 % Inhibition” value is given as -14%. Besides, in experiment [1] (Prednisolone 3 mg/kg SC), the “MIP-1α % Inhibition” value is 35* %, the “MIP-1β % Inhibition” value was 19* % and the “TNFα % Inhibition” value is given as 64* %.

As to `CCCC1O[C@@H]2C[C@H]3[C@@H]4CCC5=CC(=O)C=C[C@]5(C)[C@H]4[C@@H](O)C[C@]3(C)[C@]2(C(=O)CO)O1` (stereo partly shown) [budesonide], in experiment [2] (positive control, concentration not given), the “TNF-alpha release” value is -25.

For the compound `Oc1ccc2c3c1O[C@H]1c4[nH]c5c(c4C[C@@]4(O)[C@@H](C2)N(CC2CC2)CC[C@]314)C[C@@]1(O)[C@H]2Cc3ccc(O)c4c3[C@@]1(CCN2CC1CC1)[C@H]5O4` [nor-BNI], in experiment [3] (setting [6]), the G-CSF release is listed as 1214 (29.9) pg/mL, the IL-1 release is given as 39.9 (1.1) pg/mL, the IL-6 release is 803.9 (0.6) pg/mL and the IL-8 release was 1595 (13.3) pg/mL. In addition, the TNF release in experiment [3] (setting [6]) is 7186 (174.8) pg/mL. Moreover, the “effect of nor-BNI on the cytokine-reducing effect of CR845” value in experiment [3] (selective kappa opioid antagonist added to CR845) is on record as “blocked”.
